Each compound was assayed against T1, rat A2B receptors (rA2B) (Rattus norvegicus, UniProt P29276) (assay: Radioligand competition binding (125I-ABOPX) at rat A2B receptors in HEK-293 membranes). Details: displacement of specific [125I]ABOPX binding at rat A2B receptors expressed in HEK-293 cells; read-out: RatA2B Ki.
T1 construct: expressed in transfected cells; host or cells: HEK-293 cells, stably transfected (G418 selection); membranes
T1 sequence (P29276 1-332): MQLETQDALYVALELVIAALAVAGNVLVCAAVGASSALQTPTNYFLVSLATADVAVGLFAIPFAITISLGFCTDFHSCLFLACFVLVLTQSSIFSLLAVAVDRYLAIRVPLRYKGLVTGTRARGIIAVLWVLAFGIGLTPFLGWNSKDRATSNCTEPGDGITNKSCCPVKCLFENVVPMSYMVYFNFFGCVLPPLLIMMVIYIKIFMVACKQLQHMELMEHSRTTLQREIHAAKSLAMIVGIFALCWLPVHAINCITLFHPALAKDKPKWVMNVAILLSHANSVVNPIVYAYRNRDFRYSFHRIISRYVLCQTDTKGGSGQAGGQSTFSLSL
Description: The plasmid was amplified in competent JM109 cells and plasmid DNA isolated using Wizard Megaprep columns (Promega Corporation, Madison, Wis.).
Transfected HEK cells were grown under 5% CO2/[…] humidified atmosphere at a temperature of 37° C. Colonies were selected by growth of cells in 0.6 mg/mL G418. Transfected cells were maintained in DMEM supplemented with Hams F12 nutrient mixture (1/1), 10% newborn calf serum, 2 mM glutamine and containing 50 IU/mL penicillin, […], and 0.2 mg/mL Geneticin (G418, Boehringer Mannheim). Cells were cultured in 10 cm diameter round plates and subcultured when grown confluent (approximately after 72 hours).
At A2B receptors: Confluent monolayers of HEK-A2B cells were washed with PBS followed by ice cold Buffer A (10 mM HEPES, 10 mM EDTA, pH 7.4) with protease inhibitors (10 μg/mL benzamidine, 100 μM phenylmethanesulfonyl fluoride, and 2 μg/mL of each aprotinin, pepstatin and leupeptin). The cells were homogenized in a Polytron (Brinkmann) for 20 s, centrifuged at 30,000×g, and the pellets washed twice with buffer HE (10 mM HEPES, 1 mM EDTA, pH 7.4 with protease inhibitors). The final pellet was resuspended in buffer HE, supplemented with 10% sucrose and frozen in aliquots at −80° C. For binding assays membranes were thawed and diluted 5-10 fold with HE to a final protein concentration of approximately 1 mg/mL. To determine protein concentrations, membranes, and bovine serum albumin standards were dissolved in 0.2% NaOH/0.01% SDS and protein determined using fluorescamine fluorescence. Stowell, C.
After incubation, 20 minutes at room temperature, 50 μL, of 10 mg/mL Na-metabisulfite in water was added to quench the reaction. The reaction mixture was applied to a C18 HPLC column, eluting with a mixture of methanol and 5 mM phosphate, pH 6.0. After 5 min at 35% methanol, the methanol concentration was ramped to 100% over 15 min.
Radioligand binding experiments were performed in triplicate with 20-25 μg membrane protein in a total volume of 0.1 mL HE buffer supplemented with 1 U/mL adenosine deaminase and 5 mM MgCl2. The incubation time was 3 h at 21° C. Nonspecific binding was measured in the presence of 100 μM NECA. […] Membranes were filtered on Whatman GF/C filters using a Brandel cell harvester (Gaithersburg, Md.) and washed 3 times over 15-20 seconds with ice cold buffer (10 mM Tris, 1 mM MgCl2, pH 7.4). Bmax and KD values were calculated by Marquardt's nonlinear least squares interpolation for single a site binding models. Marquardt, D. M., J. Soc. Indust. Appl. […] Ki values for different compounds were derived from IC50 values as described. Linden, J., J. Cycl. Nucl. […] Data from replicate experiments are tabulated as means±SEM.
For `CCCn1c(=O)c2[nH]c(-c3ccc(N4CCCN(C)CC4)nc3)nc2n(CCC)c1=O` [Compound 9, 1,3-Dipropyl-8-{6-[4-methyl(perhydro-1,4-diazaepin-1-yl)]-3pyridyl}xanthine], the Ki was less than 100 nM. `C#CCn1c(=O)c2[nH]c(-c3ccc(N(CCOC)C(=O)c4cccnc4)nc3)nc2n(C)c1=O` [Compound 100, 1-Propargyl, 3-methyl-8-[6-[N-nicotinoyl, N-(2-methoxyethyl)amino]-3-pyridyl)xanthine] was tested, and the Ki was less than 5000 nM. Compound `CCCn1c(=O)c2[nH]c(-c3ccc(NC(C)CO)nc3)nc2n(CCC)c1=O` (stereo not shown) [Compound 15, 1,3-Dipropyl-8-[6-(1-hydroxy-2-propyl)amino-3-pyridyl]xanthine] has a Ki of less than 100 nM. Compound `CCCn1c(=O)c2[nH]c(-c3ccc(N4CCN(C(C)=O)CC4)nc3)nc2n(CCC)c1=O` [Compound 5, 1,3-Dipropyl-8-[6-(4-acetylpiperazinyl)-3-pyridyl]xanthine] has a Ki of less than 500 nM.

Source: patent US20100273780A1, “SUBSTITUTED 8-HETEROARYL XANTHINES” (PGXHEALTH, LLC, priority 2003, published 2010)
